Laboratory results from ChEMBL document CHEMBL4627344, “Synthesis, biological evaluation and virtual screening of some acridone derivatives as potential anticancer agents” (2020).

Tests used:
Assay type in all cases: functional
CCRF-CEM = assay: Antiproliferative activity against human CCRF-CEM cells assessed as inhibition of cell growth at 10 uM measured after 48 hrs by SRB assay relative to control; details: read-out: GI
HL-60(TB) = assay: Antiproliferative activity against human HL-60(TB) cells assessed as inhibition of cell growth at 10 uM measured after 48 hrs by SRB assay relative to control; details: HL-60, 48 h, read-out: GI
NCI-H226 = assay: Antiproliferative activity against human NCI-H226 cells assessed as inhibition of cell growth at 10 uM measured after 48 hrs by SRB assay relative to control; details: NCI-H226, 48 h, read-out: GI
HCT-116 = assay: Antiproliferative activity against human HCT116 cells assessed as inhibition of cell growth at 10 uM measured after 48 hrs by SRB assay relative to control; details: HCT-116, 48 h, read-out: GI
HCT-15 = assay: Antiproliferative activity against human HCT15 cells assessed as inhibition of cell growth at 10 uM measured after 48 hrs by SRB assay relative to control; details: HCT-15, 48 h, read-out: GI
KM12 = assay: Antiproliferative activity against human KM12 cells assessed as inhibition of cell growth at 10 uM measured after 48 hrs by SRB assay relative to control; details: KM12, 48 h, read-out: GI
SW-620 [1] = assay: Antiproliferative activity against human SW620 cells assessed as inhibition of cell growth at 10 uM measured after 48 hrs by SRB assay relative to control; details: SW-620, 48 h, read-out: GI
SNB-75 [2] = assay: Antiproliferative activity against human SNB75 cells assessed as inhibition of cell growth at 10 uM measured after 48 hrs by SRB assay relative to control; details: SNB-75, 48 h, read-out: GI
M14 [3] = assay: Antiproliferative activity against human M14 cells assessed as inhibition of cell growth at 10 uM measured after 48 hrs by SRB assay relative to control; details: M14, 48 h, read-out: GI
OVCAR-3 = assay: Antiproliferative activity against human OVCAR3 cells assessed as inhibition of cell growth at 10 uM measured after 48 hrs by SRB assay relative to control; details: OVCAR-3, 48 h, read-out: GI
NCI/ADR-RES = assay: Antiproliferative activity against human NCI-ADR-RES cells assessed as inhibition of cell growth at 10 uM measured after 48 hrs by SRB assay relative to control; details: read-out: GI
A498 = assay: Antiproliferative activity against human A498 cells assessed as inhibition of cell growth at 10 uM measured after 48 hrs by SRB assay relative to control; details: A498, 48 h, read-out: GI
CAKI-1 [4] = assay: Antiproliferative activity against human CAKI-1 cells assessed as inhibition of cell growth at 10 uM measured after 48 hrs by SRB assay relative to control; details: CAKI-1, 48 h, read-out: GI
RXF 393 [5] = assay: Antiproliferative activity against human RXF393 cells assessed as inhibition of cell growth at 10 uM measured after 48 hrs by SRB assay relative to control; details: RXF 393, 48 h, read-out: GI
PC-3 = assay: Antiproliferative activity against human PC3 cells assessed as inhibition of cell growth at 10 uM measured after 48 hrs by SRB assay relative to control; details: PC-3, 48 h, read-out: GI
DU-145 = assay: Antiproliferative activity against human DU145 cells assessed as inhibition of cell growth at 10 uM measured after 48 hrs by SRB assay relative to control; details: DU-145, 48 h, read-out: GI
A549 = assay: Antiproliferative activity against human A549 cells assessed as inhibition of cell growth measured after 48 hrs by SRB assay; details: A549, 48 h
HOP-62 = assay: Antiproliferative activity against human HOP62 cells assessed as inhibition of cell growth measured after 48 hrs by SRB assay; details: HOP-62, 48 h
NCI-H522 = assay: Antiproliferative activity against human NCI-H522 cells assessed as inhibition of cell growth measured after 48 hrs by SRB assay; details: NCI-H522, 48 h
SW-620 [6] = assay: Antiproliferative activity against human SW620 cells assessed as inhibition of cell growth measured after 48 hrs by SRB assay; details: SW-620, 48 h
SF-539 = assay: Antiproliferative activity against human SF539 cells assessed as inhibition of cell growth measured after 48 hrs by SRB assay; details: SF-539, 48 h
SNB-75 [7] = assay: Antiproliferative activity against human SNB75 cells assessed as inhibition of cell growth measured after 48 hrs by SRB assay; details: SNB-75, 48 h
LOX IMVI = assay: Antiproliferative activity against human LOXIMVI cells assessed as inhibition of cell growth measured after 48 hrs by SRB assay
M14 [8] = assay: Antiproliferative activity against human M14 cells assessed as inhibition of cell growth measured after 48 hrs by SRB assay; details: M14, 48 h
MDA-MB-435 = assay: Antiproliferative activity against human MDA-MB-435 cells assessed as inhibition of cell growth measured after 48 hrs by SRB assay; details: MDA-MB-435, 48 h
UACC-62 = assay: Antiproliferative activity against human UACC62 cells assessed as inhibition of cell growth measured after 48 hrs by SRB assay; details: UACC-62, 48 h
IGROV-1 = assay: Antiproliferative activity against human IGROV1 cells assessed as inhibition of cell growth measured after 48 hrs by SRB assay; details: IGROV-1, 48 h
OVCAR-8 = assay: Antiproliferative activity against human OVCAR8 cells assessed as inhibition of cell growth measured after 48 hrs by SRB assay; details: OVCAR-8, 48 h
SK-OV-3 = assay: Antiproliferative activity against human SKOV3 cells assessed as inhibition of cell growth measured after 48 hrs by SRB assay; details: SK-OV-3, 48 h
786-0 = assay: Antiproliferative activity against human 786-0 cells assessed as inhibition of cell growth measured after 48 hrs by SRB assay; details: 786-0, 48 h
ACHN = assay: Antiproliferative activity against human ACHN cells assessed as inhibition of cell growth measured after 48 hrs by SRB assay
CAKI-1 [9] = assay: Antiproliferative activity against human CAKI-1 cells assessed as inhibition of cell growth measured after 48 hrs by SRB assay; details: CAKI-1, 48 h
RXF 393 [10] = assay: Antiproliferative activity against human RXF393 cells assessed as inhibition of cell growth measured after 48 hrs by SRB assay; details: RXF 393, 48 h
UO-31 = assay: Antiproliferative activity against human UO31 cells assessed as inhibition of cell growth measured after 48 hrs by SRB assay; details: UO-31, 48 h
MCF7 = assay: Antiproliferative activity against human MCF7 cells assessed as inhibition of cell growth measured after 48 hrs by SRB assay; details: MCF7, 48 h
SK-MEL-28 = assay: Antiproliferative activity against human SK-MEL-28 cells assessed as inhibition of cell growth measured after 48 hrs by SRB assay; details: SK-MEL-28, 48 h

SMILES | inhibition of growth at 10 µM (CCRF-CEM) | inhibition of growth at 10 µM (HL-60(TB)) | inhibition of growth at 10 µM (NCI-H226) | inhibition of growth at 10 µM (HCT-116) | inhibition of growth at 10 µM (HCT-15) | inhibition of growth at 10 µM (KM12) | inhibition of growth at 10 µM (SW-620 [1]) | inhibition of growth at 10 µM (SNB-75 [2]) | inhibition of growth at 10 µM (M14 [3]) | inhibition of growth at 10 µM (OVCAR-3) | inhibition of growth at 10 µM (NCI/ADR-RES) | inhibition of growth at 10 µM (A498) | inhibition of growth at 10 µM (CAKI-1 [4]) | inhibition of growth at 10 µM (RXF 393 [5]) | inhibition of growth at 10 µM (PC-3) | inhibition of growth at 10 µM (DU-145) | GI50 (A549) | GI50 (HOP-62) | GI50 (NCI-H522) | GI50 (SW-620 [6]) | further results
COc1ccc2nc3c(cc2c1)C(=O)CC(c1ccccc1)C3 (configuration not stated) | 89.3% | 102% | 73.5% | 88.9% | 75.2% | 89.2% | 82.2% | 109% | 90.7% | 107% | 86.8% | 113% | 68.7% | 103% | 71.2% | 98.9% | 2070 nM | 1960 nM | 471 nM | 747 nM | GI50 (SF-539): 1150 nM; GI50 (SNB-75 [7]): 572 nM; GI50 (LOX IMVI): 887 nM; GI50 (M14 [8]): 259 nM; GI50 (MDA-MB-435): 137 nM; GI50 (UACC-62): 728 nM; GI50 (IGROV-1): 2310 nM; GI50 (OVCAR-8): 1060 nM; GI50 (SK-OV-3): 2090 nM; GI50 (786-0): 4370 nM; GI50 (ACHN): 756 nM; GI50 (CAKI-1 [9]): 525 nM; GI50 (RXF 393 [10]): 440 nM; GI50 (UO-31): 543 nM; GI50 (MCF7): 3490 nM
O=C1CC(c2ccccc2)Cc2nc3ccc(Br)cc3cc21 (configuration not stated) | 91.5% | 128% | 75.9% | 94.4% | 84% | 91.1% | 74.9% | 63.4% | 89.8% | 128% | 82.9% | 112% | 69.3% | 71.6% | 68% | 103% | 419 nM | 354 nM | 236 nM | 360 nM | GI50 (SF-539): 241 nM; GI50 (SNB-75 [7]): 210 nM; GI50 (LOX IMVI): 707 nM; GI50 (M14 [8]): 50.5 nM; GI50 (MDA-MB-435): 27.1 nM; GI50 (SK-MEL-28): 954 nM; GI50 (UACC-62): 444 nM; GI50 (IGROV-1): 423 nM; GI50 (OVCAR-8): 461 nM; GI50 (SK-OV-3): 611 nM; GI50 (786-0): 784 nM; GI50 (ACHN): 583 nM; GI50 (CAKI-1 [9]): 207 nM; GI50 (RXF 393 [10]): 208 nM; GI50 (UO-31): 640 nM; GI50 (MCF7): 2760 nM
O=C1CC(c2ccccc2)Cc2nc3ccc(Cl)cc3cc21 (configuration not stated) | 89.6% | 121% | 79.2% | 94.5% | 86.1% | 98.3% | 77% | 70.3% | 91% | 129% | 92% | 117% | 70.8% | 78.2% | 72.3% | 99.8% | 420 nM | 428 nM | 314 nM | 370 nM | GI50 (SF-539): 219 nM; GI50 (SNB-75 [7]): 215 nM; GI50 (LOX IMVI): 558 nM; GI50 (M14 [8]): 38 nM; GI50 (MDA-MB-435): 26.6 nM; GI50 (SK-MEL-28): 1690 nM; GI50 (UACC-62): 333 nM; GI50 (IGROV-1): 375 nM; GI50 (OVCAR-8): 534 nM; GI50 (SK-OV-3): 845 nM; GI50 (786-0): 838 nM; GI50 (ACHN): 508 nM; GI50 (CAKI-1 [9]): 151 nM; GI50 (RXF 393 [10]): 195 nM; GI50 (UO-31): 489 nM; GI50 (MCF7): 2550 nM
